According to patent US12622909B2, “Allosteric EGFR inhibitors and methods of use thereof” (Dana-Farber Cancer Institute, Inc., priority 2019, dated 2026):
Where two headings read alike, the source gives them in different places.

Tests used:
EGFR L858R/T790M = EGFR L858R/T790M (Homo sapiens, UniProt P00533, L858R/T790M); assay: HTRF-based EGFR biochemical assay (L858R/T790M); details: 100 μM ATP, enzyme 0.02 nM
Method: (§1) EGFR biochemical activity measurements were carried out using the homogeneous time-resolved fluorescence (HTRF) assay (Cisbio). Inhibitors and DMSO normalizations were first dispensed to empty black low-volume 384-well plates (Corning) with D300 digital liquid dispenser (HP). All reactions were carried out at room temperature and solutions were added to plates with a Multidrop Combi Reagent Dispenser (ThermoFisher). The reaction mixture (10 μL final volume) contained 1 μM tyrosine kinase peptide-biotin substrate and mutant EGFR in a reaction buffer (50 mM HEPES pH 7.0, 5 mM MgCl2, 1 mM MnCl2, 0.01% BSA, 2 mM TCEP, 0.1 mM NaVO4). […] Enzyme reaction solution (2× concentrations, 5 μL) was added to 384-well plates containing compounds and incubated for 30 mins. Enzyme reactions were initiated with the addition of 5 μL of ATP to a final concentration of 100 μM and reacted for 20 mins.

EGFR L858R = EGFR L858R (Homo sapiens, UniProt P00533, L858R); assay: HTRF-based EGFR biochemical assay (L858R); details: 100 μM ATP, enzyme 0.1 nM
Chain of EGFR L858R (P00533 25-1210 L858R): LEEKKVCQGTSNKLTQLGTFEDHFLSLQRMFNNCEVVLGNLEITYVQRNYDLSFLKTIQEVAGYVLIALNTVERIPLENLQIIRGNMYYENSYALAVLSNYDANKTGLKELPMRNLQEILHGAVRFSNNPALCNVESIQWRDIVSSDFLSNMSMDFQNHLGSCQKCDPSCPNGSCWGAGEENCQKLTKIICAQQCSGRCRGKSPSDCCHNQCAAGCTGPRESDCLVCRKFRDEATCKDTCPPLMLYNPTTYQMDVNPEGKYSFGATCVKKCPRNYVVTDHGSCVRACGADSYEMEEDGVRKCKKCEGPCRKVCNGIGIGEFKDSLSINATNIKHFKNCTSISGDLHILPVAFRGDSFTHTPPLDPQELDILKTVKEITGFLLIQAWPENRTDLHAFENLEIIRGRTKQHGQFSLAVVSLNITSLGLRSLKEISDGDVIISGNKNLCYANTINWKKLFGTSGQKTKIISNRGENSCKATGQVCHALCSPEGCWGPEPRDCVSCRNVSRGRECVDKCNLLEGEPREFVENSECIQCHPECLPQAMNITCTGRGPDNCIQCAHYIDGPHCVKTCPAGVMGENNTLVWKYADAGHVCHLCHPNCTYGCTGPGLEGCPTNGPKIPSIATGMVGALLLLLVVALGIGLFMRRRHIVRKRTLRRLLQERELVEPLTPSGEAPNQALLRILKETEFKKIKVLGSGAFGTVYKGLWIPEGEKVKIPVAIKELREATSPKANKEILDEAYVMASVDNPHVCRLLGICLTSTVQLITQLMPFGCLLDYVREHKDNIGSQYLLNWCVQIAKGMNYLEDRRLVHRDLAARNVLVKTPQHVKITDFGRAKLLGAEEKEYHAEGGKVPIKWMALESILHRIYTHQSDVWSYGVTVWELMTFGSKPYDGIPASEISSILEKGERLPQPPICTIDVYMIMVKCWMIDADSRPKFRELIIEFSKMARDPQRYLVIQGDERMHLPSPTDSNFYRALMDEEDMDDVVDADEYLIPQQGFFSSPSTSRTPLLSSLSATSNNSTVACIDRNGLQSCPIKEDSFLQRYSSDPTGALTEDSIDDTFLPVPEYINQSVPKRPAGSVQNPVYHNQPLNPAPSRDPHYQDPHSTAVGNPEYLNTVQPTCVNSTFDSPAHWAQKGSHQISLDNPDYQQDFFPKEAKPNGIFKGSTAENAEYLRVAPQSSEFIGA
Method: as §1, with “20 mins. Reactions were quenched with the addition of 10 μL of phospho-tyrosine antibody-Europium(III) cryptate (1-to-180 volume ratio) and Streptavidin-XL665 (46.7 nM) in EDTA-containing detection buffer, then incubated at room temperature for 1 hour, and read with a PHERAstar plate reader (excitation=337 nm, emission=620 nm and 665 nm).” for “20 mins.”

[1] = biological target: EGFR L858R/T790M mutant Ba/F3 cells (Homo sapiens, UniProt P00533, T790M/L858R, cells depend on it); assay: Ba/F3 cell proliferation (Cell Titer Glo); format: cell-based, murine; details: 72 hours
Chain of EGFR L858R/T790M mutant Ba/F3 cells (P00533 whole entry T790M/L858R): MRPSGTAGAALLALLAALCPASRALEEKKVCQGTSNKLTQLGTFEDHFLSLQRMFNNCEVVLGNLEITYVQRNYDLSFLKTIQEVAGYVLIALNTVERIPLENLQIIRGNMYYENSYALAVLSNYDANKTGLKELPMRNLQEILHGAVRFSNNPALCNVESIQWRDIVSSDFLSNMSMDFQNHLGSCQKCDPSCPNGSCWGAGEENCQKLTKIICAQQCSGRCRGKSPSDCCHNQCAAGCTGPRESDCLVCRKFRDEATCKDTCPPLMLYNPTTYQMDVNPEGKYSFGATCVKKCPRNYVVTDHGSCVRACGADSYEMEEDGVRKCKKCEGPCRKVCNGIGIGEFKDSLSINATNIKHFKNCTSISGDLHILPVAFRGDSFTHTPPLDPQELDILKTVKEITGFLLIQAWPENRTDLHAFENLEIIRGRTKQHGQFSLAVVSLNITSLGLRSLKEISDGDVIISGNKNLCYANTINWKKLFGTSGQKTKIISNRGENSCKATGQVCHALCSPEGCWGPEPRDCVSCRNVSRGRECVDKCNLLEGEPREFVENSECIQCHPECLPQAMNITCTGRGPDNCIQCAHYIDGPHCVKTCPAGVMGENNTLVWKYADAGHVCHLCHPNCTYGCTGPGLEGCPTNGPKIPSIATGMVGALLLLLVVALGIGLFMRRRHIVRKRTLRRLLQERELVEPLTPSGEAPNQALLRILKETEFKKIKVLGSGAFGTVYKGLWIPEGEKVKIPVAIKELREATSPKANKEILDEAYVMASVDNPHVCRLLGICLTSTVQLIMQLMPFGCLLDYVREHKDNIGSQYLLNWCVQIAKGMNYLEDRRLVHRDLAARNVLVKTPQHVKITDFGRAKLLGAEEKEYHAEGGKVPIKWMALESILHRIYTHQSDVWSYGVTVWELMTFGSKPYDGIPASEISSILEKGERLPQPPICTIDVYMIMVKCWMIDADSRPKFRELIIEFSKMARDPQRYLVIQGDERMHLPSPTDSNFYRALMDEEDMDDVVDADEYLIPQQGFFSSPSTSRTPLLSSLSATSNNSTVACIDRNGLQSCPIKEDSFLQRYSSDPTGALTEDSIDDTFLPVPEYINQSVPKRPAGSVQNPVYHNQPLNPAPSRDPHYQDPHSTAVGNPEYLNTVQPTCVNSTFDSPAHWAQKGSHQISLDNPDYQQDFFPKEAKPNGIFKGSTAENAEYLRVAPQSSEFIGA
Source text: All cell lines were maintained in RPMI 1640 (Cellgro; Mediatech Inc., Herndon, CA) supplemented with 10% FBS, 100 units/mL penicillin, 100 units/mL streptomycin. The EGFR I941R mutation was introduced via site directed mutagenesis using the Quick Change Site-Directed Mutagenesis kit (Stratagene; La Jolla, CA) according to the manufacturer's instructions. All constructs were confirmed by DNA sequencing. The constructs were shuttled into the retroviral vector JP1540 using the Cre-recombination system (Agilent Technologies, Santa Clara, CA). Ba/F3 cells were then infected with retrovirus per standard protocols, as described previously (Zhou, et al, Nature 2009). Stable clones were obtained by selection in puromycin (2 μg/ml).
Growth and inhibition of growth was assessed by the Cell Titer Glo assay (Promega, Madison, WI) and was performed according to the manufacturer's instructions. The Cell Titer Glo assay is a luminescence-based method used to determine the number of viable cells based on quantitation of the ATP present, which is directly proportional to the amount of metabolically active cells present. […] All experimental points were set up in triplicates in 384-well plates and all experiments were repeated at least three times. […] The curves were fitted using a non-linear regression model with a sigmoidal dose response.

[2] = in combination with 1 μg/ml cetuximab, read-out: Cell IC50 BaF3 L858R/T790M compound + cetuximab
[3] = single agent, read-out: Cell IC50 EGFR BaF3 L858R/T790M

Chain of EGFR L858R/T790M (P00533 25-1210 T790M/L858R): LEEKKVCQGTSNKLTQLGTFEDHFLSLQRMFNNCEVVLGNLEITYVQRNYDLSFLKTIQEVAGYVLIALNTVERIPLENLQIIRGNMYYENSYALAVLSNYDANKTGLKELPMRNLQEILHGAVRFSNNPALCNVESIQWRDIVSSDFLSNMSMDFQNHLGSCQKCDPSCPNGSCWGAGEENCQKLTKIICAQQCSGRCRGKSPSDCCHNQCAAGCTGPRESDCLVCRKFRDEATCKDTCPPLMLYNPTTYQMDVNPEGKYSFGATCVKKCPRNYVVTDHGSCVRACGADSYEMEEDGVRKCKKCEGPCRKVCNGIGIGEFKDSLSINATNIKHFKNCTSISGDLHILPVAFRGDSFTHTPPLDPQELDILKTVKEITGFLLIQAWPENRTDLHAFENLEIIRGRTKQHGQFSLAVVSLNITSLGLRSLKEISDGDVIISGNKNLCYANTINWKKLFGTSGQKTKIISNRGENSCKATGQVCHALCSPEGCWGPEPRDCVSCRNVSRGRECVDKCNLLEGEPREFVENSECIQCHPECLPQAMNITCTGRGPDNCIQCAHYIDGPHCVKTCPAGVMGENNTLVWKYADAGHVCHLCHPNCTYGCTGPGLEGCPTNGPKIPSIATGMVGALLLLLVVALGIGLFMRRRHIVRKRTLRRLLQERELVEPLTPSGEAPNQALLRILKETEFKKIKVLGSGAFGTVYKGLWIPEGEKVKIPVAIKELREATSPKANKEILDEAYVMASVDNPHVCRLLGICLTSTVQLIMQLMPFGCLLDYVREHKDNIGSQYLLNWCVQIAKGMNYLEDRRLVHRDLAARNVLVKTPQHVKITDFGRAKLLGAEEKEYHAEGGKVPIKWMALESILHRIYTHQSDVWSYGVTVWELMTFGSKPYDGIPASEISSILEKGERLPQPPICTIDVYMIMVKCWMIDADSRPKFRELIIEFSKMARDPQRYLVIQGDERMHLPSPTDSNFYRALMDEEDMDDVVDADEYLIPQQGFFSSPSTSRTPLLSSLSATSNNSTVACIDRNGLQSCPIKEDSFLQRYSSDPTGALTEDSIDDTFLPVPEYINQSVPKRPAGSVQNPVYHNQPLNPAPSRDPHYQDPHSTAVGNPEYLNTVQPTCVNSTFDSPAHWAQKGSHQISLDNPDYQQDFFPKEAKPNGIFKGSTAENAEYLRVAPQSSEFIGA

O=C(Nc1nccs1)C(c1ccccc1)n1cnc2cc(Br)ccc2c1=O (stereo not shown) [Compound 001, 2-(7-Bromo-4-oxoquinazolin-3(4H)-yl)-2-phenyl-N-(thiazol-2-yl)acetamide]
IC50 (EGFR L858R/T790M): 62 nM
IC50 (EGFR L858R): 1260 nM
GI50 [1, 2]: 8300 nM
GI50 [1, 3]: > 10000 nM

O=C(Nc1nccs1)C(c1ccccc1)n1cnc2ccc(Br)cc2c1=O (stereo not shown) [Compound 002, 2-(6-Bromo-4-oxoquinazolin-3(4H)-yl)-2-phenyl-N-(thiazol-2-yl)-acetamide]
IC50 (EGFR L858R/T790M): 35 nM
IC50 (EGFR L858R): 275 nM
GI50 [1, 2]: 980 nM
GI50 [1, 3]: > 10000 nM

O=C(Nc1nccs1)C(c1ccccc1)n1ccc2cc(Br)ccc2c1=O (stereo not shown) [Compound 003, 2-(6-Bromo-1-oxoisoquinolin-2(1H)-yl)-2-phenyl-N-(thiazol-2-yl)-acetamide]
IC50 (EGFR L858R/T790M): 16 nM
IC50 (EGFR L858R): 245 nM
GI50 [1, 2]: 2000 nM
GI50 [1, 3]: > 10000 nM

O=C(Nc1nccs1)C(c1ccccc1)n1ccc2ccc(Br)cc2c1=O (stereo not shown) [Compound 004, 2-(7-Bromo-1-oxoisoquinolin-2(1H)-yl)-2-phenyl-N-(thiazol-2-yl)-acetamide]
IC50 (EGFR L858R/T790M): 29 nM
IC50 (EGFR L858R): 521 nM
GI50 [1, 2]: 790 nM
GI50 [1, 3]: > 10000 nM

O=C(Nc1nccs1)C(c1ccccc1)n1cnc2cc(Br)c(F)cc2c1=O (stereo not shown) [Compound 005, 2-(7-Bromo-6-fluoro-4-oxoquinazolin-3(4H)-yl)-2-phenyl-N-(thiazol-2-yl)acetamide]
IC50 (EGFR L858R/T790M): 91 nM
IC50 (EGFR L858R): > 1000 nM
GI50 [1, 2]: 4800 nM
GI50 [1, 3]: > 10000 nM

O=C(Nc1nccs1)C(c1ccccc1)n1cc(F)c2cc(Br)ccc2c1=O (stereo not shown) [Compound 006, 2-(6-Bromo-4-fluoro-1-oxo-isoquinolin-2(1H)-yl)-2-phenyl-N-(thiazol-2-yl)acetamide]
IC50 (EGFR L858R/T790M): 36 nM
IC50 (EGFR L858R): > 1000 nM
GI50 [1, 2]: 1800 nM
GI50 [1, 3]: > 10000 nM

O=C(Nc1nccs1)C(c1cccc(F)c1)n1ccc2ccc(Br)cc2c1=O (stereo not shown) [Compound 007, 2-(7-Bromo-1-oxoisoquinolin-2(1H)-yl)-2-(3-fluorophenyl)-N-(thiazol-2-yl)acetamide]
IC50 (EGFR L858R/T790M): 48 nM
IC50 (EGFR L858R): > 1000 nM
GI50 [1, 2]: 1500 nM
GI50 [1, 3]: > 10000 nM

O=C(Nc1nccs1)C(c1cccc(F)c1)n1ccc2cc(Br)ccc2c1=O (stereo not shown) [Compound 008, 2-(6-Bromo-1-oxoisoquinolin-2(1H)-yl)-2-(3-fluorophenyl)-N-(thiazol-2-yl)acetamide]
IC50 (EGFR L858R/T790M): 64 nM
IC50 (EGFR L858R): > 1000 nM
GI50 [1, 2]: 2500 nM
GI50 [1, 3]: > 10000 nM

O=C(Nc1nccs1)C(c1ccccc1)n1ncc2cc(Br)ccc2c1=O (stereo not shown) [Compound 009, 2-(6-Bromo-1-oxophthalazin-2(1H)-yl)-2-phenyl-N-(thiazol-2-yl)-acetamide]
IC50 (EGFR L858R/T790M): 10 nM
IC50 (EGFR L858R): > 1000 nM
GI50 [1, 2]: > 10000 nM
GI50 [1, 3]: > 10000 nM

O=C(Nc1nccs1)C(c1cccc(F)c1)n1cnc2cc(Br)ccc2c1=O (stereo not shown) [Compound 010, 2-(7-Bromo-4-oxoquinazolin-3(4H)-yl)-2-(3-fluorophenyl)-N-(thiazol-2-yl)acetamide]
IC50 (EGFR L858R/T790M): 54 nM
IC50 (EGFR L858R): 1840 nM
GI50 [1, 2]: > 10000 nM
GI50 [1, 3]: > 10000 nM

O=C(Nc1nccs1)C(c1cccc(F)c1)n1cnc2ccc(Br)cc2c1=O (stereo not shown) [Compound 011, 2-(6-Bromo-4-oxoquinazolin-3(4H)-yl)-2-(3-fluorophenyl)-N-(thiazol-2-yl)acetamide]
IC50 (EGFR L858R/T790M): 16 nM
IC50 (EGFR L858R): 195 nM
GI50 [1, 2]: 350 nM
GI50 [1, 3]: > 10000 nM

CN1CCC(c2ccc(-c3ccc4c(=O)n(C(C(=O)Nc5nccs5)c5ccccc5)cnc4c3)cc2)CC1 (stereo not shown) [Compound 012, 2-(7-(4-(1-Methylpiperidin-4-yl)phenyl)-4-oxoquinazolin-3(4H)-yl)-2-phenyl-N-(thiazol-2-yl)acetamide]
IC50 (EGFR L858R/T790M): 6 nM
IC50 (EGFR L858R): 11 nM
GI50 [1, 2]: 200 nM
GI50 [1, 3]: 2150 nM

CN1CCN(c2ccc(-c3ccc4c(=O)n(C(C(=O)Nc5nccs5)c5ccccc5)cnc4c3)cc2)CC1 (stereo not shown) [Compound 013, 2-(7-(4-(4-Methylpiperazin-1-yl)-phenyl)-4-oxoquinazolin-3(4H)-yl)-2-phenyl-N-(thiazol-2-yl)acetamide]
IC50 (EGFR L858R/T790M): 3 nM
IC50 (EGFR L858R): 14 nM
GI50 [1, 2]: 380 nM
GI50 [1, 3]: 2000 nM

CN1CCC(c2ccc(-c3ccc4ncn(C(C(=O)Nc5nccs5)c5ccccc5)c(=O)c4c3)cc2)CC1 (stereo not shown) [Compound 014, 2-(6-(4-(1-Methylpiperidin-4-yl)-phenyl)-4-oxoquinazolin-3(4H)-yl)-2-phenyl-N-(thiazol-2-yl)acetamide]
IC50 (EGFR L858R/T790M): 0.2 nM
IC50 (EGFR L858R): 3 nM
GI50 [1, 2]: 5 nM
GI50 [1, 3]: 510 nM

CN1CCN(c2ccc(-c3ccc4ncn(C(C(=O)Nc5nccs5)c5ccccc5)c(=O)c4c3)cc2)CC1 (stereo not shown) [Compound 015, 2-(6-(4-(4-Methylpiperazin-1-yl)-phenyl)-4-oxoquinazolin-3(4H)-yl)-2-phenyl-N-(thiazol-2-yl)acetamide]
IC50 (EGFR L858R/T790M): 1 nM
IC50 (EGFR L858R): 7 nM
GI50 [1, 2]: 20 nM
GI50 [1, 3]: 2320 nM

CN1CCC(c2ccc(-c3ccc4c(=O)n(C(C(=O)Nc5nccs5)c5ccccc5)ccc4c3)cc2)CC1 (stereo not shown) [Compound 016, 2-(6-(4-(1-Methylpiperidin-4-yl)-phenyl)-1-oxoisoquinolin-2(1H)-yl)-2-phenyl-N-(thiazol-2-yl)acetamide]
IC50 (EGFR L858R/T790M): 1 nM
IC50 (EGFR L858R): 3 nM
GI50 [1, 2]: 20 nM
GI50 [1, 3]: 1190 nM

CN1CCN(c2ccc(-c3ccc4c(=O)n(C(C(=O)Nc5nccs5)c5ccccc5)ccc4c3)cc2)CC1 (stereo not shown) [Compound 017, 2-(6-(4-(4-Methylpiperazin-1-yl)-phenyl)-1-oxoisoquinolin-2(1H)-yl)-2-phenyl-N-(thiazol-2-yl)acetamide]
IC50 (EGFR L858R/T790M): 3 nM
IC50 (EGFR L858R): 7 nM
GI50 [1, 2]: 62 nM
GI50 [1, 3]: 1270 nM

CN1CCC(c2ccc(-c3ccc4ccn(C(C(=O)Nc5nccs5)c5ccccc5)c(=O)c4c3)cc2)CC1 (stereo not shown) [Compound 018, 2-(7-(4-(1-Methylpiperidin-4-yl)-phenyl)-1-oxoisoquinolin-2(1H)-yl)-2-phenyl-N-(thiazol-2-yl)acetamide]
IC50 (EGFR L858R/T790M): 2 nM
IC50 (EGFR L858R): 12 nM
GI50 [1, 2]: 72 nM
GI50 [1, 3]: 1520 nM

CN1CCN(c2ccc(-c3ccc4ccn(C(C(=O)Nc5nccs5)c5ccccc5)c(=O)c4c3)cc2)CC1 (stereo not shown) [Compound 019, 2-(7-(4-(4-Methylpiperazin-1-yl)-phenyl)-1-oxoisoquinolin-2(1H)-yl)-2-phenyl-N-(thiazol-2-yl)acetamide]
IC50 (EGFR L858R/T790M): 5 nM
IC50 (EGFR L858R): 35 nM
GI50 [1, 2]: 44 nM
GI50 [1, 3]: 1850 nM

CN1CCC(c2ccc(-c3cc4ncn(C(C(=O)Nc5nccs5)c5ccccc5)c(=O)c4cc3F)cc2)CC1 (stereo not shown) [Compound 020, 2-(6-Fluoro-7-(4-(1-methylpiperidin-4-yl)phenyl)-4-oxoquinazolin-3(4H)-yl)-2-phenyl-N-(thiazol-2-yl)acetamide]
IC50 (EGFR L858R/T790M): 6 nM
IC50 (EGFR L858R): 26 nM
GI50 [1, 2]: 780 nM
GI50 [1, 3]: 1420 nM

O=C(Nc1nccs1)C(c1ccccc1)n1cnc2ccc(C#Cc3cccnc3)cc2c1=O (stereo not shown) [Compound 061, 2-(4-Oxo-6-(pyridin-3-ylethynyl)quinazolin-3(4H)-yl)-2-phenyl-N-(thiazol-2-yl)acetamide]
GI50 [1, 2]: 28 nM
GI50 [1, 3]: 4520 nM
